{
  "source": "paper PMC5218480",
  "about": "(PLoS ONE, 2017)",
  "system": "MV-4-11 cells",
  "test": "Gene expression microarray analysis (Affymetrix PrimeView) and GSEA",
  "assay_type": "cell-based, human",
  "set-up": "RFU PODN (11730768_x_at) / Fold change /veh PODN (11730768_x_at) / RFU LINC00158 (11744669_a_at) / Fold change /veh LINC00158 (11744669_a_at) / RFU DUSP10 (11751237_a_at) / Fold change /veh DUSP10 (11751237_a_at) / RFU ID3 (11757404_x_at) / Fold change /veh ID3 (11757404_x_at) / RFU PLEKHG5 (11737974_s_at) / Fold change /veh PLEKHG5 (11737974_s_at) / RFU LRRC4B (11730491_at) / Fold change /veh LRRC4B (11730491_at) / RFU GIMAP4 (11747438_a_at) / Fold change /veh GIMAP4 (11747438_a_at) / RFU KRT8 (11758183_x_at) / Fold change /veh KRT8 (11758183_x_at) / RFU CNN1 (11734310_a_at) / Fold change /veh CNN1 (11734310_a_at) / RFU VPS37D (11726825_at) / Fold change /veh VPS37D (11726825_at) / RFU C10orf10 (11716522_x_at) / Fold change /veh C10orf10 (11716522_x_at) / RFU KIR2DL2 /// KIR2DL4 /// KIR2DL5A /// KIR2DL5B /// KIR2DS1 /// KIR2DS2 /// KIR2DS3 /// KIR2DS4 /// KIR3DL3 /// KIR3DL3 /// KIR3DS1 (11738374_at) / Fold change /veh KIR2DL2 /// KIR2DL4 /// KIR2DL5A /// KIR2DL5B /// KIR2DS1 /// KIR2DS2 /// KIR2DS3 /// KIR2DS4 /// KIR3DL3 /// KIR3DL3 /// KIR3DS1 (11738374_at) / RFU C1QL1 (11718748_at) / Fold change /veh C1QL1 (11718748_at) / RFU TMPRSS4 (11747572_a_at) / Fold change /veh TMPRSS4 (11747572_a_at) / RFU HAMP (11756126_x_at) / Fold change /veh HAMP (11756126_x_at) / RFU RNFT2 (11725882_a_at) / Fold change /veh RNFT2 (11725882_a_at) / RFU NR4A2 (11747474_a_at) / Fold change /veh NR4A2 (11747474_a_at) / RFU ABCC12 (11746883_a_at) / Fold change /veh ABCC12 (11746883_a_at) / RFU TMEM136 (11760407_x_at) / Fold change /veh TMEM136 (11760407_x_at) / RFU CLDN22 /// WWC2 (11732394_at) / Fold change /veh CLDN22 /// WWC2 (11732394_at) / RFU HLA-DPB1 (11760878_x_at) / Fold change /veh HLA-DPB1 (11760878_x_at) / RFU SPINT1 (11716480_a_at) / Fold change /veh SPINT1 (11716480_a_at) / RFU GAP43 (11754022_s_at) / Fold change /veh GAP43 (11754022_s_at) / RFU A4GNT (11735810_at) / Fold change /veh A4GNT (11735810_at) / RFU PRB3 (11715151_x_at) / Fold change /veh PRB3 (11715151_x_at) / RFU TUBB4B (11761932_at) / Fold change /veh TUBB4B (11761932_at) / RFU CAPN14 (11732068_a_at) / Fold change /veh CAPN14 (11732068_a_at) / RFU TMCC2 (11721928_a_at) / Fold change /veh TMCC2 (11721928_a_at) / RFU IRGQ (11745062_a_at) / Fold change /veh IRGQ (11745062_a_at) / RFU FAM174B (11720279_a_at) / Fold change /veh FAM174B (11720279_a_at) / RFU TMPRSS4 (11748680_a_at) / Fold change /veh TMPRSS4 (11748680_a_at) / RFU FAM212B (11763350_a_at) / Fold change /veh FAM212B (11763350_a_at) / RFU PLEKHG5 (11743358_a_at) / Fold change /veh PLEKHG5 (11743358_a_at) / RFU ZSCAN30 (11745921_a_at) / Fold change /veh ZSCAN30 (11745921_a_at) / RFU CMKLR1 (11741424_a_at) / Fold change /veh CMKLR1 (11741424_a_at) / RFU LOC101060620 /// MAPK8IP1 (11723275_at) / Fold change /veh LOC101060620 /// MAPK8IP1 (11723275_at) / RFU SPTSSB (11747773_x_at) / Fold change /veh SPTSSB (11747773_x_at) / RFU PRSS12 (11739890_at) / Fold change /veh PRSS12 (11739890_at) / RFU BIN1 (11741810_x_at) / Fold change /veh BIN1 (11741810_x_at) / RFU WNT11 (11732464_a_at) / Fold change /veh WNT11 (11732464_a_at) / RFU C10orf10 (11716521_a_at) / Fold change /veh C10orf10 (11716521_a_at) / RFU C5orf56 (11738089_at) / Fold change /veh C5orf56 (11738089_at) / RFU CYB561 (11721691_x_at) / Fold change /veh CYB561 (11721691_x_at) / RFU ANKRD19P (11752326_a_at) / Fold change /veh ANKRD19P (11752326_a_at) / RFU OR2T12 /// OR2T33 /// OR2T8 (11738714_s_at) / Fold change /veh OR2T12 /// OR2T33 /// OR2T8 (11738714_s_at) / RFU VCAN (11748164_a_at) / Fold change /veh VCAN (11748164_a_at) / RFU JSRP1 (11732532_at) / Fold change /veh JSRP1 (11732532_at) / RFU KRTAP10-11 (11738290_x_at) / Fold change /veh KRTAP10-11 (11738290_x_at) / RFU MYO3A (11730013_a_at) / Fold change /veh MYO3A (11730013_a_at) / RFU EBF3 (11725865_a_at) / Fold change /veh EBF3 (11725865_a_at) / RFU CAMK2N1 (11719241_x_at) / Fold change /veh CAMK2N1 (11719241_x_at) / RFU C5orf56 (11738088_a_at) / Fold change /veh C5orf56 (11738088_a_at) / RFU OLFML3 (11715873_a_at) / Fold change /veh OLFML3 (11715873_a_at) / RFU LOC100653217 /// NTM (11731650_a_at) / Fold change /veh LOC100653217 /// NTM (11731650_a_at) / RFU MAPK11 (11762145_a_at) / Fold change /veh MAPK11 (11762145_a_at) / RFU FIZ1 (11724087_x_at) / Fold change /veh FIZ1 (11724087_x_at) / RFU OASL (11726364_x_at) / Fold change /veh OASL (11726364_x_at) / RFU SOX15 (11748057_x_at) / Fold change /veh SOX15 (11748057_x_at) / RFU CD79A (11719716_a_at) / Fold change /veh CD79A (11719716_a_at) / RFU HIST1H1D (11736915_at) / Fold change /veh HIST1H1D (11736915_at) / RFU CASKIN2 (11723855_a_at) / Fold change /veh CASKIN2 (11723855_a_at) / RFU LOC730098 (11760151_x_at) / Fold change /veh LOC730098 (11760151_x_at) / RFU OR4N2 (11742367_at) / Fold change /veh OR4N2 (11742367_at) / RFU PRRT2 (11749266_a_at) / Fold change /veh PRRT2 (11749266_a_at) / RFU SNX32 (11753110_a_at) / Fold change /veh SNX32 (11753110_a_at) / RFU CDHR5 (11726645_a_at) / Fold change /veh CDHR5 (11726645_a_at) / RFU RCAN1 (11760418_a_at) / Fold change /veh RCAN1 (11760418_a_at) / RFU FAM167A (11723789_a_at) / Fold change /veh FAM167A (11723789_a_at) / RFU FAM26E (11764081_at) / Fold change /veh FAM26E (11764081_at) / RFU ISYNA1 (11749810_s_at) / Fold change /veh ISYNA1 (11749810_s_at) / RFU ACY1 (11761880_at) / Fold change /veh ACY1 (11761880_at) / RFU 11764098_at / Fold change /veh 11764098_at / RFU SAMD14 (11745864_x_at) / Fold change /veh SAMD14 (11745864_x_at) / RFU NPB (11741838_a_at) / Fold change /veh NPB (11741838_a_at) / RFU TMPRSS6 (11731388_a_at) / Fold change /veh TMPRSS6 (11731388_a_at) / RFU KRTAP10-2 (11738614_at) / Fold change /veh KRTAP10-2 (11738614_at) / RFU ARHGAP8 /// PRR5-ARHGAP8 (11727945_x_at) / Fold change /veh ARHGAP8 /// PRR5-ARHGAP8 (11727945_x_at) / RFU KRTAP5-7 /// NADSYN1 (11734609_at) / Fold change /veh KRTAP5-7 /// NADSYN1 (11734609_at) / RFU RASL12 (11751679_a_at) / Fold change /veh RASL12 (11751679_a_at) / RFU CDKN2B (11736163_a_at) / Fold change /veh CDKN2B (11736163_a_at) / RFU PRF1 (11729649_at) / Fold change /veh PRF1 (11729649_at) / RFU, ZNF638 /// ZNF638-IT1 / Fold change vs veh, ZNF638 /// ZNF638-IT1 / RFU, PANK3 / Fold change vs veh, PANK3 / RFU, SH3YL1 / Fold change vs veh, SH3YL1 / RFU, ZEB2 / Fold change vs veh, ZEB2 / RFU, NRIP1 / Fold change vs veh, NRIP1 / RFU, PTTG1IP / Fold change vs veh, PTTG1IP / RFU, CAPN2 / Fold change vs veh, CAPN2 / RFU, MED14 / Fold change vs veh, MED14 / RFU, SNORA58 / Fold change vs veh, SNORA58 / RFU, C1orf63 / Fold change vs veh, C1orf63 / RFU, LRRFIP1 / Fold change vs veh, LRRFIP1 / RFU, NDUFAF7 / Fold change vs veh, NDUFAF7 / RFU, SLC12A2 / Fold change vs veh, SLC12A2 / RFU, IBTK / Fold change vs veh, IBTK / RFU, ESF1 / Fold change vs veh, ESF1 / Fold change vs veh, TMEM50B / RFU, TAOK1 / Fold change vs veh, TAOK1 / RFU, ACBD3 / Fold change vs veh, ACBD3 / RFU, TMA16 / Fold change vs veh, TMA16 / RFU, RWDD3 / Fold change vs veh, RWDD3 / RFU, BCAT1 / Fold change vs veh, BCAT1 / RFU, EDEM3 / Fold change vs veh, EDEM3 / RFU, TMEM33 / Fold change vs veh, TMEM33 / RFU, WDR75 / Fold change vs veh, WDR75 / RFU, AHCTF1 / Fold change vs veh, AHCTF1 / RFU, TFRC / Fold change vs veh, TFRC / RFU, ZDHHC17 / Fold change vs veh, ZDHHC17 / RFU, NOM1 / Fold change vs veh, NOM1 / RFU, ARL8B / Fold change vs veh, ARL8B / RFU, ZBTB11 / Fold change vs veh, ZBTB11 / RFU, TAMM41 / Fold change vs veh, TAMM41 / RFU, KIAA1704 /// LOC100996395 / Fold change vs veh, KIAA1704 /// LOC100996395 / RFU, ING1 / Fold change vs veh, ING1 / RFU, TRMT61B / Fold change vs veh, TRMT61B / RFU, FUBP3 / Fold change vs veh, FUBP3 / RFU, TP53 / Fold change vs veh, TP53 / RFU, TNKS2 / Fold change vs veh, TNKS2 / RFU, ZFP14 / Fold change vs veh, ZFP14 / RFU, ACTR2 / Fold change vs veh, ACTR2 / RFU, PPP3R1 / Fold change vs veh, PPP3R1 / RFU, PIK3R1 / Fold change vs veh, PIK3R1 / RFU, HNRNPA1 / Fold change vs veh, HNRNPA1 / RFU, RNF170 / Fold change vs veh, RNF170 / RFU, ZNF28 / Fold change vs veh, ZNF28 / RFU, RNGTT / Fold change vs veh, RNGTT / RFU, OGT / Fold change vs veh, OGT / RFU, BRD1 / Fold change vs veh, BRD1 / RFU, MARS / Fold change vs veh, MARS / RFU, ZNF655 / Fold change vs veh, ZNF655 / RFU, FAHD1 / Fold change vs veh, FAHD1 / RFU, BDP1 / Fold change vs veh, BDP1 / RFU, LRRCC1 / Fold change vs veh, LRRCC1 / RFU, ARID1A / Fold change vs veh, ARID1A / RFU, ZNF146 / Fold change vs veh, ZNF146 / RFU, ZNF330 / Fold change vs veh, ZNF330 / RFU, GPN3 / Fold change vs veh, GPN3 / RFU, C9orf123 / Fold change vs veh, C9orf123 / RFU, N4BP2L2 / Fold change vs veh, N4BP2L2 / RFU, ARFIP1 / Fold change vs veh, ARFIP1 / RFU, FAM179B / Fold change vs veh, FAM179B / RFU, BCL10 / Fold change vs veh, BCL10 / RFU, UHRF1BP1L / Fold change vs veh, UHRF1BP1L / RFU, BET1 / Fold change vs veh, BET1 / RFU, CNOT2 / Fold change vs veh, CNOT2 / RFU, ZNF268 / Fold change vs veh, ZNF268 / Fold change vs veh, ZNF507 / RFU, DGCR2 / Fold change vs veh, DGCR2 / RFU, WDSUB1 / Fold change vs veh, WDSUB1 / Fold change vs veh, HSP90B1 /// MIR3652 / RFU, ADSS / Fold change vs veh, ADSS / RFU, GK / Fold change vs veh, GK / RFU, ZNF148 / Fold change vs veh, ZNF148 / RFU, TAF9 / Fold change vs veh, TAF9 / RFU, SLC1A5 / Fold change vs veh, SLC1A5 / RFU, SLMO2 / Fold change vs veh, SLMO2 / RFU, ABCC4 / Fold change vs veh, ABCC4 / RFU, LOC101060439 /// RAP1B / Fold change vs veh, LOC101060439 /// RAP1B / RFU, RFX7 / Fold change vs veh, RFX7 / RFU, GTPBP10 / Fold change vs veh, GTPBP10 / RFU, CNEP1R1 / Fold change vs veh, CNEP1R1 / RFU, BIVM-ERCC5 /// ERCC5 / Fold change vs veh, BIVM-ERCC5 /// ERCC5 / RFU, ILF3 / Fold change vs veh, ILF3 / RFU 11762660_at / Fold change /veh 11762660_at / RFU VCAN (11757783_s_at) / Fold change /veh VCAN (11757783_s_at) / RFU DDX43 (11728927_at) / Fold change /veh DDX43 (11728927_at) / RFU KRT8 (11758188_x_at) / Fold change /veh KRT8 (11758188_x_at) / RFU NKD1 (11759106_at) / Fold change /veh NKD1 (11759106_at) / RFU SRD5A1 (11742802_a_at) / Fold change /veh SRD5A1 (11742802_a_at) / RFU TPSAB1 /// TPSB2 (11721975_s_at) / Fold change /veh TPSAB1 /// TPSB2 (11721975_s_at) / RFU GSTM3 (11746129_a_at) / Fold change /veh GSTM3 (11746129_a_at) / RFU IL23R (11737362_x_at) / Fold change /veh IL23R (11737362_x_at) / RFU TMEM51 (11727254_a_at) / Fold change /veh TMEM51 (11727254_a_at) / RFU PIWIL2 (11732686_x_at) / Fold change /veh PIWIL2 (11732686_x_at) / RFU ORM1 (11744905_x_at) / Fold change /veh ORM1 (11744905_x_at) / RFU CCDC152 (11743942_at) / Fold change /veh CCDC152 (11743942_at) / RFU ECM1 (11717891_a_at) / Fold change /veh ECM1 (11717891_a_at) / RFU IL23R (11748794_a_at) / Fold change /veh IL23R (11748794_a_at) / RFU TNFAIP8L3 (11732012_x_at) / Fold change /veh TNFAIP8L3 (11732012_x_at) / RFU MBOAT4 (11741988_at) / Fold change /veh MBOAT4 (11741988_at) / RFU 11764193_at / Fold change /veh 11764193_at / RFU TMEM53 (11763286_at) / Fold change /veh TMEM53 (11763286_at) / RFU MAGEB2 (11727129_at) / Fold change /veh MAGEB2 (11727129_at) / RFU TMEM200A (11744735_a_at) / Fold change /veh TMEM200A (11744735_a_at) / RFU CCDC152 (11751479_a_at) / Fold change /veh CCDC152 (11751479_a_at) / RFU FAM211A (11726209_a_at) / Fold change /veh FAM211A (11726209_a_at) / RFU RGS16 (11746705_a_at) / Fold change /veh RGS16 (11746705_a_at) / RFU VCAN (11755009_s_at) / Fold change /veh VCAN (11755009_s_at) / RFU RHOB (11743442_s_at) / Fold change /veh RHOB (11743442_s_at) / RFU RGS16 (11720943_a_at) / Fold change /veh RGS16 (11720943_a_at) / RFU RGS16 (11720944_at) / Fold change /veh RGS16 (11720944_at) / RFU, VPS4B / Fold change vs veh, VPS4B / RFU, CREB1 / Fold change vs veh, CREB1 / RFU, DNAJC13 / Fold change vs veh, DNAJC13 / RFU, GNAQ / Fold change vs veh, GNAQ / RFU, CDK5R1 / Fold change vs veh, CDK5R1 / RFU, ZRANB3 / Fold change vs veh, ZRANB3 / RFU, CUL4A / Fold change vs veh, CUL4A / RFU, CCNY / Fold change vs veh, CCNY / RFU, UFL1 / Fold change vs veh, UFL1 / RFU, COG3 / Fold change vs veh, COG3 / RFU, DIAPH2 / Fold change vs veh, DIAPH2 / RFU, SKA2 / Fold change vs veh, SKA2 / RFU, AFF3 / Fold change vs veh, AFF3 / RFU, LMF1 / Fold change vs veh, LMF1 / RFU, IPO11 / Fold change vs veh, IPO11 / RFU, DFFB / Fold change vs veh, DFFB / RFU, FOXP1 / Fold change vs veh, FOXP1 / RFU, CARD8 / Fold change vs veh, CARD8 / RFU, STRN3 / Fold change vs veh, STRN3 / RFU, ADK / Fold change vs veh, ADK / RFU, RASSF2 / Fold change vs veh, RASSF2 / RFU, WIPF1 / Fold change vs veh, WIPF1 / RFU, LARP1B / Fold change vs veh, LARP1B / RFU, RASA1 / Fold change vs veh, RASA1 / RFU, RB1 / Fold change vs veh, RB1 / RFU, PPFIA1 / Fold change vs veh, PPFIA1 / RFU, MAT2A / Fold change vs veh, MAT2A / RFU, CCT5 / Fold change vs veh, CCT5 / RFU, WDR92 / Fold change vs veh, WDR92 / RFU, CUX1 / Fold change vs veh, CUX1 / RFU, TTC7A / Fold change vs veh, TTC7A / RFU, TMEM135 / Fold change vs veh, TMEM135 / RFU, DEPTOR / Fold change vs veh, DEPTOR / RFU, CPM / Fold change vs veh, CPM / RFU, DNAJB6 / Fold change vs veh, DNAJB6 / RFU, CACNA2D3 / Fold change vs veh, CACNA2D3 / RFU, DTX4 / Fold change vs veh, DTX4 / RFU, TFCP2 / Fold change vs veh, TFCP2 / RFU, GMCL1 /// GMCL1P1 / Fold change vs veh, GMCL1 /// GMCL1P1 / RFU, AEBP2 / Fold change vs veh, AEBP2 / RFU, SNHG1 /// SNORD22 /// SNORD25 /// SNORD26 /// SNORD27 /// SNORD28 /// SNORD29 /// SNORD31 / Fold change vs veh, SNHG1 /// SNORD22 /// SNORD25 /// SNORD26 /// SNORD27 /// SNORD28 /// SNORD29 /// SNORD31 / Fold change (Aza/veh), C12orf56 (ProbeSet 11735607_a_at) / Fold change (ACY-1035/veh), C12orf56 (ProbeSet 11735607_a_at) / Fold change (Aza/veh), FGFR1OP (ProbeSet 11751329_s_at) / Fold change (ACY-1035/veh), FGFR1OP (ProbeSet 11751329_s_at) / Fold change (Aza/veh), VPS36 (ProbeSet 11739960_a_at) / Fold change (ACY-1035/veh), VPS36 (ProbeSet 11739960_a_at) / RFU SYPL1 (11715823_x_at) / Fold change /veh SYPL1 (11715823_x_at) / RFU IGFBP7 (11715501_s_at) / Fold change /veh IGFBP7 (11715501_s_at) / RFU REEP3 (11722064_at) / Fold change /veh REEP3 (11722064_at) / RFU IGLL1 (11728026_x_at) / Fold change /veh IGLL1 (11728026_x_at): dose or concentration left out as unconfirmed",
  "settings": "MV-4-11 cells, 48 hours",
  "data": [
    {"smiles": "Nc1ccc(-c2cccs2)cc1NC(=O)c1ccc2c(c1)cc(C1CC1)n2CCN1CCOCC1", "note": "[ACY-1035]", "values": [
      {"measurement": "Fold change /veh FAM212B (11763350_a_at)", "result": 1.09}
    ]}
  ]
}
